Measurements from US20180163250A1, “Screening Broths Comprising Esculatin Compounds for the Detection of Specific Microorganisms” (Neogen Corporation, priority 2016, published 2018).

Tests used:
[1] = test system: methicillin resistant staphylococcus aureus strains; assay: Growth and initial color change in MRSA screening broth (LAB588) containing the substrate; assay type: cell-based; conditions: for Initial color change indicating the presence of MRSA: LAB588 broth with cefoxitin, 100-1000 cfu
Protocol: (§1) CHE-phosphate, and 3,4-cyclohexenoesculatin diphosphate were dissolved at 200 mg/ml in a 50:50 mixture of dimethylformamide and water. 5-bromo-4-chloroindoxyl phosphate was dissolved at 200 mg/ml in a 50:50 mixture of ethanol and water. The mixtures of compounds were added individually to a MRSA broth (LAB588; Lab M limited) pre-dispensed to 10 ml volumes, after supplementation with cefoxitin selective agent, as 25 μL additions from the prepared stock solutions.
(§2) A 0.5 Macfarlane standard suspension of methicillin resistant staphylococcus aureus strains were prepared from 18-24 h cultures grown in tryptic soy broth (LAB004; Lab M Limited) at 37° C. These were diluted and added to the MRSA broth samples in an amount sufficient to inoculate each sample with 100-1000 colony forming units (cfu). Target concentration was achieved by diluting a culture to a target level and inoculating sets of tubes at different inoculum dilutions so as to achieve the target range. The actual quantity inoculated was confirmed by plating 50 μl of the dilution onto Tryptone soy agar (LAB011) and incubating the plates for 18-24 h at 37° C. and counting the resulting colonies. This information was used to determine which tubes had been inoculated within the target dosing range.
(§3) The broth is designed to selectively indicate a positive presence of MRSA by a yellow color, or a presumptive positive presence of MRSA by an orange color (Table 1). To the CHE-phosphate and 3,4-cyclohexenoesculatin diphosphate was added 50 μL of a 250/mg/ml stock solution of Ferric ammonium citrate and samples were allowed to incubate at ambient temperature for 5 minutes.

[2] = test system: phosphatase activity of methicillin resistant staphylococcus aureus; assay: Blackening after addition of ferric ammonium citrate (free CHE, phosphatase activity) in MRSA broth; assay type: cell-based; conditions: for blackening after the addition of ferric ammonium citrate indicating the presence of free 3,4-cyclohexenoesculatin: 5 minutes at ambient temperature after FAC
Protocol: as §1, §2, §3

[3] = test system: methicillin resistant staphylococcus aureus; assay: CHE-phosphate in MRSA broth before and after FAC: MRSA strains; assay type: cell-based; conditions: for Broth color after addition of FAC: 5 minutes at ambient temperature after FAC; for Broth color before addition FAC: LAB588, 37° C. for 22 hours
Excerpt: (§4) Scheme 2 above provides a pictorial representation of CHE-phosphate discriminating between methicillin resistant staphylococcus aureus and methicillin resistant coagulase negative Staphylococcus. The single phosphate group from CHE-phosphate is removed by the phosphatase activity of methicillin resistant staphylococcus aureus, but not by the coagulase negative staphylococcus, which lack this phosphatase activity. Addition of ferric ammonium citrate produces the dark, insoluble iron-3,4-cyclohexenoesculatin complex indicating the presence of methicillin resistant staphylococcus aureus. The dark complex is not formed between ferric ammonium citrate and CHE-phosphate, and therefore indicates the absence of phosphatase activity. Accordingly, a lack of a dark precipitate indicates the absence of methicillin resistant staphylococcus aureus.
(§5) A panel of MRSA strains and coagulase negative staphylococci (clinical isolates) were cultured and tested in MRSA broth with CHE-phosphate using the same methodology as Example 2 CHE-phosphate was Dissolved at 200 mg/ml in 50:50 mixture of dimethylformamide and water. LAB588 (MRSA broth, Lab M limited) pre-dispensed to 10 ml volumes was supplemented with 25 μL aliquots from the prepared stock solution. A 0.5 Macfarlane standard suspension of methicillin resistant staphylococcus aureus and coagulase negative staphylococci strains were prepared from 18-24 h cultures grown in tryptic soy broth (LAB004, Lab M Limited) at 37° C. These were diluted to an amount sufficient to inoculate each sample with 100-1000 cfu. Samples were then incubated at 37° C. for 22 hours and observed for growth and color change. 50 μL aliquots of a 250 mg/ml stock solution of Ferric ammonium citrate (FAC) was then added to each sample and allowed to incubate at ambient temperature for 5 minutes. The samples were then observed for blackening indicating phosphatase activity by the presence of free 3,4-cyclohexenoesculatin (Table 3).

[4] = test system: methicillin resistant coagulase negative staphylococcus (clinical isolates); assay: CHE-phosphate in MRSA broth before and after FAC: coagulase negative staphylococci; assay type: cell-based; conditions: for Broth color after addition of FAC: 5 minutes at ambient temperature after FAC; for Broth color before addition FAC: LAB588, 37° C. for 22 hours
Excerpt: as §4, §5

[5] = test system: MRSA phosphatase activity; assay: Confirmatory enzymatic test for MRSA phosphatase activity in the MRSA screening broth (initial investigation); assay type: cell-based, staphylococcus aureus; conditions: substrate and ferric ammonium citrate added at end of incubation, or substrate included before incubation
Excerpt: MRSA detection broths based on the principle of mannitol and trehalose utilization and cefoxitin were designed to be a selective system for high throughput screening of clinical MRSA samples. The broths allow high volume screening of the majority of patient samples by a low cost method with confirmation of the few presumptive positive samples by rapid methods. The broths achieved good performance relative to Mannitol salts broth enrichment and/or direct plating (>98% sensitivity and >96 selectivity). In order to further enhance the selectivity of this broth system, the use of a confirmatory enzymatic test targeted at the MRSA phosphatase activity was investigated. […] Fluorogenic phosphatase substrate, although giving a confirming reaction, suffered from the disadvantage of nonspecific fluorescence in the broth probably due to compound stability, and also necessitated the use of non-auto fluorescent glass or plastic tubes. […]

**Q.** Which results are given for `O=c1oc2cc(O)c(OP(=O)(O)O)cc2c2c1CCCC2` [CHE-phosphate, sodium 3,4-cyclohexenoesculatin-6-phosphate (sodium 3-hydroxy-6-oxo-7,8,9,10-tetrahydro-6H-benzo[c]chromen-2-yl phosphate)]?
**A.** Initial color change indicating the presence of MRSA ([1]; MRSA 3): Growth (yellow); Initial color change indicating the presence of MRSA ([1]; MRSA 15): Growth (yellow); Initial color change indicating the presence of MRSA ([1]; MRSA 15A (clinical isolate)): Growth (yellow); Initial color change indicating the presence of MRSA ([1]; MRSA 15B (clinical isolate)): Growth (yellow); Initial color change indicating the presence of MRSA ([1]; MRSA 15C (clinical isolate)): Growth (orange); Initial color change indicating the presence of MRSA ([1]; MRSA 16A (clinical isolate)): Growth (orange); Initial color change indicating the presence of MRSA ([1]; MRSA 16B (clinical isolate)): Growth (orange); Initial color change indicating the presence of MRSA ([1]; MRSA 16C (clinical isolate)): Growth (orange); Inhibition of the growth of MRSA ([1]; MRSA broth LAB588, summary of Table 1): not inhibitory; Initial color change indicating the presence of MRSA ([1]; S. aureus NCTC 12493): Growth (yellow); blackening after the addition of ferric ammonium citrate indicating the presence of free 3,4-cyclohexenoesculatin ([2]; MRSA 3): Blackening; blackening after the addition of ferric ammonium citrate indicating the presence of free 3,4-cyclohexenoesculatin ([2]; MRSA 15): Blackening; blackening after the addition of ferric ammonium citrate indicating the presence of free 3,4-cyclohexenoesculatin ([2]; MRSA 15A (clinical isolate)): Blackening; blackening after the addition of ferric ammonium citrate indicating the presence of free 3,4-cyclohexenoesculatin ([2]; MRSA 15B (clinical isolate)): Blackening; blackening after the addition of ferric ammonium citrate indicating the presence of free 3,4-cyclohexenoesculatin ([2]; MRSA 15 C (clinical isolate)): Blackening; blackening after the addition of ferric ammonium citrate indicating the presence of free 3,4-cyclohexenoesculatin ([2]; MRSA 16A (clinical isolate)): Blackening; blackening after the addition of ferric ammonium citrate indicating the presence of free 3,4-cyclohexenoesculatin ([2]; MRSA 16B (clinical isolate)): Blackening; blackening after the addition of ferric ammonium citrate indicating the presence of free 3,4-cyclohexenoesculatin ([2]; MRSA 16 C (clinical isolate)): Blackening; blackening after the addition of ferric ammonium citrate indicating the presence of free 3,4-cyclohexenoesculatin ([2]; S. aureus NCTC 12493): Blackening; Specificity of enzymatic phosphatase activity for the substrate ([2]; summary of Table 2): specific; Broth color after addition of FAC ([3]; MRSA 3): Black; Broth color before addition FAC ([3]; MRSA 3): Yellow; Broth color after addition of FAC ([3]; MRSA 15): Black; Broth color before addition FAC ([3]; MRSA 15): Yellow; Broth color after addition of FAC ([3]; MRSA 16A): Black; Broth color before addition FAC ([3]; MRSA 16A): Orange; Broth color after addition of FAC ([3]; MRSA 16B): Black; Broth color before addition FAC ([3]; MRSA 16B): Orange; Broth color after addition of FAC ([3]; MRSA 75): Black; Broth color before addition FAC ([3]; MRSA 75): Orange; Broth color after addition of FAC ([3]; S. aureus NCTC 12493): Black; Broth color before addition FAC ([3]; S. aureus NCTC 12493): Yellow; Specificity for the phosphatase enzyme of MRSA versus methicillin resistant coagulase negative staphylococci ([3]; summary of Table 3): specific for the phosphatase enzyme of MRSA; Broth color after addition of FAC ([4]; CNS 22): Orange; Broth color before addition FAC ([4]; CNS 22): Orange; Broth color after addition of FAC ([4]; CNS 28): yellow; Broth color before addition FAC ([4]; CNS 28): yellow; Broth color after addition of FAC ([4]; CNS 33): orange; Broth color before addition FAC ([4]; CNS 33): orange; Blackening reaction in the MRSA screening broth [5]: readily observable blackening reaction
